Data taken from US6391873B1, “Imidazodiazepine derivative” (priority 1999, dated 2002).

Key:
benzodiazepine receptors = experiment: 3H-flumazenil in vitro binding assay using homogenized rat cortex; conditions: inhibition of binding of tritiated flumazenil
Procedure: The preclinical pharmacological profile of the compound of the present invention for treatment of anxiety disorders, and/or treatment of convulsions and/or non-sedative treatment of sleep disorders involves no, or only minimal motor impairment, in a standard test of motor performance in animals (e.g. rotarod test in mice with motor function evaluated in the same animals at different time points up to 1 hour after intravenous injection).
The affinity of the compound of the invention to the central benzodiazepine receptors was established in vitro according to the methods described in Nature 294, 763-765 (1981) and J. Neurochemistry 37, 714-722 (1981). According to these methods, the inhibition of the binding of tritiated flumazenil to the specific benzodiazepine receptors in the cortex of rats by the respective test substance is determined. The affinity was calculated as pKi (for background information on pKi see: Cheng, Y. and W. H. Prusoff, Relationship between the inhibition constant (Ki) and the concentration of inhibitor which causes 50 percent inhibition (IC50) of an enzymatic reaction. Biochem. Pharmac. 22: 3099-3108, 1973) as the measure of the specific binding of tritiated flumazenil to specific benzodiazepine receptors in the cortex of rat.

mice [1] = experiment: rotating rod test (rotarod test), motor impairment; assay type: in vivo, mouse; conditions: for ED50 for a rotarod deficit: consistently at different time points up to 1 hour after intravenous injection
Procedure: The motor impairing properties of the compound of the invention can be determined, for example, in the rotating rod test (rotarod test). […] These mice were housed in Macrolon® type I cages for one or more days following arrival in the laboratory colony (12:12 hour light-dark cycle). They have free access to a standard rodent diet (Kliba Mühlen, Kaiseraugst, Switzerland) and tap water in the home cage up to testing. They are brought into the test laboratory at least 30 min before the test which was done during the light portion of the day-night cycle. In the rotating rod test the animals are placed on a horizontally arranged, smooth metal rod having a diameter of 3 cm, which is rotated at 2 revolutions per min. Initially, the animals are given the opportunity of familiarizing themselves with the test situation for at least 30 sec. Subsequently, those animals which succeed in remaining on the rod for at least 1 min are selected for use in the test. These selected animals are then given the test preparations intravenously in different dosages. At various points in time post-injection, it is then determined whether the animals are able to remain wallking on the rod for a minimum period (minimum period of 10 sec at time points 15 sec. 30 sec. 1 min and 2 min; minimum period of 1 min at time points 5 min, 15 min, 30 min, 60 min). The dosage at which 50% of the animals are capable of remaining on the rod (i.e., ED50) was determined at each of these time points.

mice [2] = experiment: fatalities after i.v. administration in mice (rotarod test); assay type: in vivo, mouse; conditions: up to 100 mg/kg i.v.
rats [3] = experiment: fatalities after i.v. administration in rats; assay type: in vivo; conditions: 100 mg/kg i.v.
animals = experiment: anticonvulsant effects in animals; assay type: in vivo; conditions: low doses
mice [4] = experiment: ethanol interaction in mice
rats [5] = experiment: cognitive impairment in rats
mice [6] = experiment: mouse operant conflict model of anxiety; conditions: oral bolus circa 30 min prior to conflict test; punished responding
[7] = system: cytochrome P450 isoenzymes; experiment: inhibition of cytochrome P450 isoenzymes
mice [8] = experiment: tolerance of the anxiolytic effect in mice after chronic treatment
mice [9] = experiment: withdrawal signs in chronically treated mice challenged with a benzodiazepine receptor antagonist; conditions: chronically treated mice challenged with benzodiazepine receptor antagonist (e.g., sarmazenil)

Compound: CN(C)Cc1nc(-c2ncn3c2CN(C)C(=O)c2c(Cl)cccc2-3)no1 [compound of the invention, 7-Chloro-3-(5-dimethylaminomethyl-[1,2,4]oxadiazol-3-yl)-5-methyl-4,5-dihydro-imidazo[1,5-a][1,4]benzodiazepin-6-one]
- Affinity to benzodiazepine receptors (benzodiazepine receptors): 9.1
- Rotating rod test ED50 (mice [1]; 15 sec after administration): >10 mg/kg i.v.
- Rotating rod test ED50 (mice [1]; 20 sec after administration): >10 mg/kg i.v.
- Rotating rod test ED50 (mice [1]; 60 sec after administration): >10 mg/kg i.v.
- Rotating rod test ED50 (mice [1]; 2 min after administration): >10 mg/kg i.v.
- Rotating rod test ED50 (mice [1]; 5 min after administration): >10 mg/kg i.v.
- Rotating rod test ED50 (mice [1]; 15 min after administration): >10 mg/kg i.v.
- Rotating rod test ED50 (mice [1]; 30 min after administration): >10 mg/kg i.v.
- Rotating rod test ED50 (mice [1]; 60 min after administration): >10 mg/kg i.v.
- ED50 for a rotarod deficit (mice [1]): > 10 mg/kg i.v.
- ED50 for a rotarod deficit (mice [1]; listed as compound of the present invention): greater than 10 mg/kg i.v.
- fatalities (mice [2]): without fatalities occurring
- fatalities (rats [3]): without fatalities occurring
- anticonvulsant effects (animals): show anticonvulsant effects
- ethanol interaction (mice [4]): low ethanol interaction
- cognitive impairment (rats [5]): minimal cognitive impairment
- minimum effective dose (statistically significant anxiolytic-like effect) (mice [6]): 3 mg/kg p.o.
- inhibition of cytochrome P450 isoenzymes [7]: minimal or no inhibition
- reduction (so-called tolerance) of the anxiolytic effect (mice [8]): minimal reduction
- withdrawal signs (mice [9]): minimal withdrawal signs
